Read-outs that look alike come from different tables or passages of the source. Bridge positions count the residues as written; N and C are the ends. Peptide text beside a SMILES is read from it. I, II: the chains in the order shown.
Experiments:
[1] = molecular target: T1, RXFP3 (Homo sapiens, UniProt Q9NSD7); assay: Competition binding in CHO-K1-RXFP3 cells (Eu-H3B1-22R)
T1 construct: expressed in transfected cells; host or cells: CHO-K1 (ATCC), stably transfected
T1 sequence (Q9NSD7 1-469): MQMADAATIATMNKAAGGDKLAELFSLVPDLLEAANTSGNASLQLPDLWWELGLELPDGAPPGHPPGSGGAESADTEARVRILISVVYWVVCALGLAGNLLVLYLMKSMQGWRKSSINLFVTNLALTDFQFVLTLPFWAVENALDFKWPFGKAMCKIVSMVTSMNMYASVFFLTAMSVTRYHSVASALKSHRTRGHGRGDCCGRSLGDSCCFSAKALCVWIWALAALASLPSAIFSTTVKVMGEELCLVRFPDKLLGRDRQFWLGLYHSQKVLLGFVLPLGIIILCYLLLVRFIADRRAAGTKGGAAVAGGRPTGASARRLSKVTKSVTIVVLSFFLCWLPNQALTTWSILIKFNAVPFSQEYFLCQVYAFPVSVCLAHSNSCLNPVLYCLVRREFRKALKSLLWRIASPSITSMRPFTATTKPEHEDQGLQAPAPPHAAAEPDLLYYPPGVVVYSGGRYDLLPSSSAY
Experimental: (§1) Chinese hamster ovary CHO-K1 cells (sourced from American Type Culture Collection (ATCC), Maryland, USA) stably transfected with RXFP3[33] or RXFP4[9] were plated out onto precoated poly-L-lysine 96-well view plates at a density of 50 000 cells per well. Medium was aspirated off and the cells were washed with phosphate-buffered saline (PBS) before competition binding assays were performed with 5 nM Eu-H3B1–22R[34] (RXFP3 ligand) or 5 nM Eu-DTPA-mINSL5[9] (RXFP4 ligand) as previously described. Competition binding curves were performed in triplicate and each experiment was performed independently at least three times. Fluorescent measurements were carried out on a BMG POLARstar plate reader (BMG Labtech, Melbourne, Australia. Pooled data are presented as mean ± S.E of specific binding and are fitted using one-site binding curve in GraphPad Prism version 8 (GraphPad Inc., San Diego, USA). Statistical analyses were conducted using one-way analysis of variance with uncorrected Fisher’s least significant difference (LSD) post-hoc analysis in GraphPad Prism version 8.

[2] = molecular target: T1, RXFP3; assay: cAMP agonist assay (inhibition of forskolin-induced cAMP, pCRE β-galactosidase reporter) in CHO-K1-RXFP3 cells; type: cell-based; settings: CHO-K1-RXFP3 cells, inhibition of 5 µM forskolin-induced cAMP, 6 hours; mean ± SEM, n in cell
Experimental: (§2) The peptides were tested for their ability to inhibit forskolin induced cAMP activity in CHO-K1-RXFP3 or CHO-K1-RXFP4 cells transfected with a pCRE (cAMP Response Element) β-galactosidase reporter plasmid as previously described[9],[34]. For agonist assays cells were stimulated with forskolin (5 µM for RXFP3, 1 µM for RXFP4) plus or minus increasing concentrations of each peptide for 6 hours. For antagonist assays cells were stimulated with forskolin as in agonist assays plus increasing concentrations of each peptide for 10 minutes followed by stimulation with agonist at an ~EC80 concentration for a further 6 hours (10 nM Analogue 2 for RXFP3 and 16.6 nM Analogue 13 for RXFP4). Each peptide was tested in triplicate and each experiment was performed independently at least three times. Agonist data was expressed as the % Forskolin activity whereby 100% was defined as Forskolin alone and 0% as maximum agonist stimulation (1 µM Analogue 2 for RXFP3 and 1 µM Analogue 13 for RXFP4). […] Data were analysed and plotted using GraphPad PRISM 8 and are expressed as the mean ± SEM of the pooled data. Statistical analysis was conducted using one-way ANOVA with Uncorrected Fisher’s LSD post-hoc analysis in GraphPad Prism version 8.

[3] = molecular target: T1, RXFP3; assay: cAMP antagonist assay against 10 nM analogue 2 in CHO-K1-RXFP3 cells; type: cell-based; settings: for Emax: SEM, read-out: RXFP3 Emax (antagonist efficacy)
Experimental: as §2

[4] = molecular target: T2, RXFP4 (Homo sapiens, UniProt Q8TDU9); assay: Competition binding in CHO-K1-RXFP4 cells (Eu-DTPA-mINSL5); parameters: expressed in transfected cells; host or cells: CHO-K1 (ATCC), stably transfected
T2 sequence (Q8TDU9 whole entry): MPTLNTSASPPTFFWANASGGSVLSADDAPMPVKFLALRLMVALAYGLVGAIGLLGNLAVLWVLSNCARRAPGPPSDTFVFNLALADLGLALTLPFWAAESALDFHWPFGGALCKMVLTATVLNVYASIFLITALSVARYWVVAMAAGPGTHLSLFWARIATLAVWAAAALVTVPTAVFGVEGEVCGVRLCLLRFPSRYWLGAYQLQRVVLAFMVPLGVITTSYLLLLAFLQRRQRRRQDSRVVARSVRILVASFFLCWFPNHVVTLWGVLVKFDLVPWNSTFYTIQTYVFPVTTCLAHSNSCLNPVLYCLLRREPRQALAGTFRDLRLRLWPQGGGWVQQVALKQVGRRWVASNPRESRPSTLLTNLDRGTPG
Experimental: as §1

[5] = molecular target: T2, RXFP4; assay: cAMP agonist assay (inhibition of forskolin-induced cAMP, pCRE β-galactosidase reporter) in CHO-K1-RXFP4 cells; type: cell-based; parameters: expressed in transfected cells; host or cells: CHO-K1 (ATCC), stably transfected; settings: CHO-K1-RXFP4 cells, inhibition of 1 µM forskolin-induced cAMP, 6 hours; mean ± SEM, n in cell
Experimental: as §2

[6] = molecular target: T2, RXFP4; assay: cAMP antagonist assay against 16.6 nM analogue 13 in CHO-K1-RXFP4 cells; type: cell-based; parameters: expressed in transfected cells; host or cells: CHO-K1 (ATCC), stably transfected; settings: for Emax: SEM, read-out: RXFP4 Emax (antagonist efficacy)
Experimental: as §2

[7] = CHO-K1 cells stably transfected with RXFP3, competition with 5 nM Eu-H3B1-22R, read-out: RXFP3 Binding Ki
[8] = CHO-K1 cells stably transfected with RXFP4, competition with 5 nM Eu-DTPA-mINSL5, read-out: RXFP4 Binding Ki
[9] = CHO-K1-RXFP4 cells, block of 16.6 nM analogue 13, read-out: RXFP4 Antagonist potency IC50
[10] = CHO-K1-RXFP3 cells, peptide 10 minutes, then 10 nM analogue 2 for 6 hours, 5 µM forskolin, mean ± SEM, read-out: RXFP3 Antagonist potency pIC50 (converted)

Structure (SMILES)	Ki [1, 7] [nM]	RXFP3 Activity pEC50 [2]	IC50 ([3]; CHO-K1-RXFP3 cells, block of 10 nM analogue 2, read-out: RXFP3 Antagonist potency IC50) [nM]	Emax [3] [%]	Ki [4, 8] [nM]	RXFP4 Activity pEC50 [5]	IC50 [6, 9] [nM]	Emax [6] [%]	IC50 [3, 10] [nM]	Ki [1] [nM]	IC50 [3] [nM]	Ki [4] [nM]	IC50 [6] [nM]
CC[C@H](C)[C@@H]1NC(=O)[C@H](Cc2ccccc2)NC(=O)[C@H](CCC(=O)O)NC(=O)[C@H](CC(C)C)NC(=O)CNC(=O)[C@@H](NC(=O)[C@H](CC(C)C)NC(=O)[C@H](CCCNC(=N)N)NC(=O)[C@@H](NC(=O)CNC(=O)[C@H](Cc2ccc(O)cc2)NC(=O)[C@@H]2CCCN2C(=O)[C@H](C)NC(=O)[C@H](C)NC(=O)[C@@H](N)CCCNC(=N)N)C(C)C)CSSC[C@@H]2NC(=O)[C@@H](NC(=O)[C@H](CC(C)C)NC(=O)[C@@H](NC(=O)[C@H](CCC(N)=O)NC(=O)[C@H](CC(C)C)NC(=O)[C@H](CC(=O)O)NC(=O)[C@@H]3CCC(=O)N3)[C@@H](C)O)CSSC[C@H](NC(=O)CNC(=O)[C@H](CC(=O)O)NC(=O)[C@H]([C@@H](C)O)NC2=O)C(=O)N[C@@H](CO)C(=O)N[C@@H](CCSC)C(=O)N[C@@H]([C@@H](C)O)C(=O)N[C@@H](CC(=O)O)C(=O)N[C@@H](CC(C)C)C(=O)N[C@@H](CO)C(=O)N[C@@H](C)C(=O)N[C@@H](CC(C)C)C(=O)N[C@H](C(=O)O)CSSC[C@@H](C(=O)N[C@@H](CCCNC(=N)N)C(=O)O)NC(=O)[C@H]([C@@H](C)O)NC(=O)[C@H](Cc2ccccc2)NC(=O)[C@H]([C@@H](C)CC)NC(=O)[C@H](C(C)C)NC(=O)[C@H](C)NC(=O)[C@H](CCCNC(=N)N)NC1=O [Analogue 14]	24	No activity (3)	263	66.5 ± 14.8	24	Weak partial agonist (6)	331	37.3 ± 7.6	–	–	–	–	–
CC[C@H](C)[C@@H]1NC(=O)[C@H](Cc2ccccc2)NC(=O)[C@H](CCC(=O)O)NC(=O)[C@H](CCCNC(=N)N)NC(=O)CNC(=O)[C@@H](NC(=O)[C@H](CC(C)C)NC(=O)[C@H](CCCNC(=N)N)NC(=O)[C@@H](NC(=O)CNC(=O)[C@H](Cc2ccc(O)cc2)NC(=O)[C@@H]2CCCN2C(=O)[C@H](C)NC(=O)[C@H](C)NC(=O)[C@@H](N)CCCNC(=N)N)C(C)C)CSSC[C@H](N)C(=O)N[C@@H]([C@@H](C)O)C(=O)N[C@@H](CC(=O)O)C(=O)NCC(=O)N[C@@H](C)C(=O)N[C@@H](CO)C(=O)N[C@@H](CCSC)C(=O)N[C@@H](CCCCN)C(=O)N[C@@H](CC(=O)O)C(=O)N[C@@H](CC(C)C)C(=O)N[C@@H](CO)C(=O)N[C@@H](C)C(=O)N[C@@H](CC(C)C)C(=O)N[C@H](C(=O)O)CSSC[C@@H](C(=O)N[C@@H](CCCNC(=N)N)C(=O)O)NC(=O)[C@H]([C@@H](C)O)NC(=O)[C@H](Cc2ccccc2)NC(=O)[C@H]([C@@H](C)CC)NC(=O)[C@H](C(C)C)NC(=O)[C@H](C)NC(=O)[C@H](CCCNC(=N)N)NC1=O [Analogue 15] (I: H-RAAPYGVRLCGREFIRAVIFTCR-OH / II: H-CTDGASMKDLSALC-OH; disulfide I:10-II:1, I:22-II:14)	15.5	No activity (4)	–	43.5 ± 12.1	22.9	Weak partial agonist (5)	–	49.4 ± 6.2	> 10000	–	–	–	–
CC[C@H](C)[C@@H]1NC(=O)[C@H](Cc2ccccc2)NC(=O)[C@H](CCC(=O)O)NC(=O)[C@H](CCCNC(=N)N)NC(=O)CNC(=O)[C@@H](NC(=O)[C@H](CC(C)C)NC(=O)[C@H](CCCNC(=N)N)NC(=O)[C@@H](NC(=O)CNC(=O)[C@H](Cc2ccc(O)cc2)NC(=O)[C@@H]2CCCN2C(=O)[C@H](C)NC(=O)[C@H](C)NC(=O)[C@@H](N)CCCNC(=N)N)C(C)C)CSSC[C@H](N)C(=O)N[C@@H]([C@@H](C)O)C(=O)N[C@@H](CC(=O)O)C(=O)NCC(=O)N[C@@H](C)C(=O)N[C@@H](CO)C(=O)N[C@@H](CCSC)C(=O)N[C@@H](CCCCN)C(=O)N[C@@H](CC(=O)O)C(=O)N[C@@H](CC(C)C)C(=O)N[C@@H](CO)C(=O)N[C@@H](C)C(=O)N[C@@H](CC(C)C)C(=O)N[C@H](C(=O)O)CSSC[C@@H](C(=O)N[C@@H](CCCNC(=N)N)C(=O)O)NC(=O)[C@H]([C@@H](C)O)NC(=O)[C@H](Cc2ccccc2)NC(=O)[C@H]([C@@H](C)CC)NC(=O)[C@H](C(C)C)NC(=O)[C@H]([C@@H](C)O)NC(=O)[C@H](CCCNC(=N)N)NC1=O [Analogue 17] (I: H-RAAPYGVRLCGREFIRTVIFTCR-OH / II: H-CTDGASMKDLSALC-OH; disulfide I:10-II:1, I:22-II:14)	–	No activity (3)	–	34.8 ± 0.9	–	Weak partial agonist (4)	–	36 ± 10	–	19.1	> 10000	40.7	34.7
CC[C@H](C)[C@@H]1NC(=O)[C@H](Cc2ccccc2)NC(=O)[C@H](CCC(=O)O)NC(=O)[C@H](CC(C)C)NC(=O)CNC(=O)[C@@H](NC(=O)[C@H](CC(C)C)NC(=O)[C@H](CCCNC(=N)N)NC(=O)[C@@H](NC(=O)CNC(=O)[C@H](Cc2ccc(O)cc2)NC(=O)[C@@H]2CCCN2C(=O)[C@H](C)NC(=O)[C@H](C)NC(=O)[C@@H](N)CCCNC(=N)N)C(C)C)CSSC[C@H](N)C(=O)N[C@@H]([C@@H](C)O)C(=O)N[C@@H](CC(=O)O)C(=O)NCC(=O)N[C@@H](C)C(=O)N[C@@H](CO)C(=O)N[C@@H](CCSC)C(=O)N[C@@H](CCCCN)C(=O)N[C@@H](CC(=O)O)C(=O)N[C@@H](CC(C)C)C(=O)N[C@@H](CO)C(=O)N[C@@H](C)C(=O)N[C@@H](CC(C)C)C(=O)N[C@H](C(=O)O)CSSC[C@@H](C(=O)N[C@@H](CCCNC(=N)N)C(=O)O)NC(=O)[C@H]([C@@H](C)O)NC(=O)[C@H](Cc2ccccc2)NC(=O)[C@H]([C@@H](C)CC)NC(=O)[C@H](C(C)C)NC(=O)[C@H](C)NC(=O)[C@H](CCCNC(=N)N)NC1=O [Analogue 18] (I: H-RAAPYGVRLCGLEFIRAVIFTCR-OH / II: H-CTDGASMKDLSALC-OH; disulfide I:10-II:1, I:22-II:14)	25.7	No activity (3)	–	47 ± 7.3	14.8	Weak partial agonist (3)	214	56.2 ± 11.8	> 10000	–	–	–	–

From article PMC6882824, “Engineering of chimeric peptides as antagonists for the G protein-coupled receptor, RXFP4” (Scientific Reports, 2019)
